# Experimental data reported in US10857110B2, “Antibacterial compounds” (CONSEJO NACIONAL DE INVESTIGACIONES CIENTÍFICAS Y TÉCNICAS …, priority 2016, dated 2020).
# How the values were obtained:
# Assay in all cases: MIC/MBC antibiotic sensitivity (CLSI)
# [1] = tested on: Bordetella bronchiseptica (9.73H+); type: cell-based; settings: B. bronchiseptica (9.73H+); for MBC: read-out: MBC; for MIC: read-out: MIC
# Method: (§1) The new compounds of the invention were synthesized following the general method of preparation (Tetrahedron, 2001, 57, 1671-1675), from the reaction between an intermediary compound of the acyl thiourea and HgCl2 in presence of trimethylamine. The products were adequately characterized regarding its chemistry. The antibacterial activity of the new compounds was assayed against two Gram-positive reference strains: Staphylococcus aureus (ATCC6538) and Bacillus cereus (ATCC10876), a fermenting Gram-negative strain: Escherichia coli (ATCC25922), and 26 non-fermenting Gram-negative isolates, including 3 reference strains: Pseudomonas aeruginosa (PAO1), Bordetella bronchiseptica (9.73H+), and Inquilinus limosus (DSM16000), and 23 isolates recovered from patients suffering from cystic fibrosis, including one Achromobacter xylosoxidans isolate, and 22 isolates belonging to the Burkholderia cepacia complex. The later were selected because they presented resistance to a high number of antimicrobial compounds, among a panel of 125 clinical isolates previously analyzed for its resistance against 17 antimicrobial compounds (1,2). The antibiotic sensitivity studies were performed by applying two quantitative methods which allow to determine the minimum inhibitory concentration (MIC) and the minimum bactericidal concentration (MBC).
# (§2) The compounds obtained in Examples 1 and 2 were assayed against 23 isolates recovered from the sputum of patients suffering from cystic fibrosis being treated at the Sor Maria Ludovica Children Hospital (La Plata, Buenos Aires, Argentina). Nineteen of these isolates were selected for being highly resistant to most of the antimicrobial agents of clinical use from a panel of 125 isolates previously characterized in Martina et al. (1). Reference strains were also included: Gram (+) bacteria: B. cereus and S. aureus, fermenting Gram (−) bacteria: E. coli, and non-fermenting Gram (−) bacteria: Inquilinus limosus (DSM16000), B. bronchiseptica, and Pseudomonas aeruginosa (PAO1). The antibiotic sensitivity studies were performed applying two quantitative methods which allow to determine the minimum inhibitory concentration (MIC) and the minimum bactericidal concentration (MBC) according to the criteria established by the Clinical and Laboratory Standards Institute (CLSI) (4). For comparative purposes, three antibiotics commonly used in the treatment of pulmonary infections in cystic fibrosis patients were included in the study: tobramycin, ceftazidime and meropenem.
# [2] = tested on: Escherichia coli (ATCC25922); type: cell-based; settings: for MBC / MIC: Escherichia coli, E. coli (ATCC25922); for MBC: read-out: MBC; for MIC: read-out: MIC; for Selectivity Index (SI): ratio IC50 (THP-I) / MIC for E. coli
# Method: as §1, §2
# [3] = tested on: Burkholderia seminalis (CBC 040); type: cell-based; settings: Burkholderia seminalis (CBC 040); for MIC: read-out: MIC
# Method: as §1, §2
# [4] = tested on: Staphylococcus aureus (ATCC6538); type: cell-based; settings: for MBC / MIC: Staphylococcus aureus, S. aureus (ATCC6538); for MBC: read-out: MBC; for MIC: read-out: MIC; for Selectivity Index (SI): ratio IC50 (THP-I) / MIC against S. aureus
# Method: as §1, §2
# [5] = tested on: Burkholderia cenocepacia (CBC 031); type: cell-based; settings: Burkholderia cenocepacia (CBC 031); for MBC: read-out: MBC; for MIC: read-out: MIC
# Method: as §1, §2
# [6] = tested on: Burkholderia multivorans (CBC 015); type: cell-based; settings: Burkholderia multivorans (CBC 015); for MBC: read-out: MBC; for MIC: read-out: MIC
# Method: as §1, §2
# [7] = tested on: Burkholderia cepacia (CBC 010); type: cell-based; settings: Burkholderia cepacia (CBC 010); for MIC: read-out: MIC
# Method: as §1, §2
# [8] = tested on: Burkholderia cenocepacia (CBC 035); type: cell-based; settings: Burkholderia cenocepacia (CBC 035); for MBC: read-out: MBC; for MIC: read-out: MIC
# Method: as §1, §2
# [9] = tested on: Burkholderia multivorans (CBC 021); type: cell-based; settings: Burkholderia multivorans (CBC 021); for MIC: read-out: MIC
# Method: as §1, §2
# B. contaminans (HNBC001) = type: cell-based; settings: for MIC: read-out: MIC
# Method: as §1, §2
# [10] = tested on: Burkholderia seminalis (CBC 042); type: cell-based; settings: Burkholderia seminalis (CBC 042); for MIC: read-out: MIC
# Method: as §1, §2
# [11] = tested on: Bacillus cereus (ATCC10876); type: cell-based; settings: for MBC: read-out: MBC; for MIC: read-out: MIC
# Method: as §1, §2
# [12] = tested on: Burkholderia multivorans (CBC 020); type: cell-based; settings: Burkholderia multivorans (CBC 020); for MIC: read-out: MIC
# Method: as §1, §2
# [13] = tested on: Burkholderia multivorans (CBC 016); type: cell-based; settings: Burkholderia multivorans (CBC 016); for MBC: read-out: MBC; for MIC: read-out: MIC
# Method: as §1, §2
# [14] = tested on: Burkholderia cenocepacia (CBC 023); type: cell-based; settings: Burkholderia cenocepacia (CBC 023); for MIC: read-out: MIC
# Method: as §1, §2
# [15] = tested on: Inquilinus limosus (DSM16000); type: cell-based; settings: for MIC: read-out: MIC
# Method: as §1, §2
# [16] = tested on: Burkholderia cenocepacia (CBC 024); type: cell-based; settings: Burkholderia cenocepacia (CBC 024); for MBC: read-out: MBC; for MIC: read-out: MIC
# Method: as §1, §2
# [17] = tested on: Pseudomonas aeruginosa (PAO1); type: cell-based; settings: Pseudomonas aeruginosa, P. aeruginosa (PAO1); for MBC: read-out: MBC; for MIC: read-out: MIC
# Method: as §1, §2
# [18] = tested on: Burkholderia cenocepacia (CBC 032); type: cell-based; settings: Burkholderia cenocepacia (CBC 032); for MBC: read-out: MBC; for MIC: read-out: MIC
# Method: as §1, §2
# [19] = tested on: Burkholderia cenocepacia (CBC 029); type: cell-based; settings: Burkholderia cenocepacia (CBC 029); for MBC: read-out: MBC; for MIC: read-out: MIC
# Method: as §1, §2
# [20] = tested on: Burkholderia multivorans (CBC 019); type: cell-based; settings: Burkholderia multivorans (CBC 019); for MIC: read-out: MIC
# Method: as §1, §2
# [21] = tested on: Burkholderia cepacia (CBC 011); type: cell-based; settings: Burkholderia cepacia (CBC 011); for MIC: read-out: MIC
# Method: as §1, §2
# [22] = tested on: Burkholderia cenocepacia (CBC 033); type: cell-based; settings: Burkholderia cenocepacia (CBC 033); for MBC: read-out: MBC; for MIC: read-out: MIC
# Method: as §1, §2
# B. cenacepacia (FQC2524) = type: cell-based, B. cenocepacia; settings: Burkholderia cenocepacia; for MIC: read-out: MIC
# Method: as §1, §2
structure (smiles),measurement,setting,value
"O=C(NC(=Nc1c(Br)cc(F)cc1Br)Nc1c(F)cc(F)cc1Br)C12CC3CC(CC(C3)C1)C2 [H-DBF, N—(N-(2-bromo-4,6-difluorophenyl)-N′-(2,6-dibromo-4-fluorophenyl)carbamimidoyl) adamantane-1-carboxamide]",MBC,[1],66.5 µg/mL
same,MIC,[1],16.6 µg/mL
same,MBC,[2],66.4 µg/mL
same,MIC,[2],66.4 µg/mL
same,Selectivity Index (SI),[2],2
same,MBC,[3],> 61.2 µg/mL
same,MIC,[3],61.2 µg/mL
same,MBC,[4],66.4 µg/mL
same,MIC,[4],7.81 µg/mL
same,Selectivity Index (SI),[4],17
same,MBC,[5],62.5 µg/mL
same,MIC,[5],31.2 µg/mL
same,MBC,[6],132 µg/mL
same,MIC,[6],66.4 µg/mL
same,MBC,[7],> 132 µg/mL
same,MIC,[7],133 µg/mL
same,MBC,[8],132 µg/mL
same,MIC,[8],66.4 µg/mL
same,MBC,[9],> 132 µg/mL
same,MIC,[9],66.4 µg/mL
same,MBC,B. contaminans (HNBC001),31.2 µg/mL
same,MIC,B. contaminans (HNBC001),15.6 µg/mL
same,MBC,[10],66.4 µg/mL
same,MIC,[10],33.2 µg/mL
same,MBC,[11],66.4 µg/mL
same,MIC,[11],66.4 µg/mL
same,MBC,[12],133 µg/mL
same,MIC,[12],66.4 µg/mL
same,MBC,[13],> 132 µg/mL
same,MIC,[13],66.4 µg/mL
same,MBC,[14],132 µg/mL
same,MIC,[14],66.4 µg/mL
same,MIC,[15],61.2 µg/mL
same,MBC,[16],132 µg/mL
same,MIC,[16],66.4 µg/mL
same,MBC,[17],> 133 µg/mL
same,MIC,[17],33.2 µg/mL
same,MBC,[18],62.5 µg/mL
same,MIC,[18],31.2 µg/mL
same,MBC,[19],> 133 µg/mL
same,MIC,[19],> 133 µg/mL
same,MBC,[20],132 µg/mL
same,MIC,[20],66.4 µg/mL
same,MBC,[21],> 132 µg/mL
same,MIC,[21],66.4 µg/mL
same,MBC,[22],> 133 µg/mL
same,MIC,[22],133 µg/mL
same,MBC,B. cenacepacia (FQC2524),31.2 µg/mL
same,MIC,B. cenacepacia (FQC2524),15.6 µg/mL
"O=C(NC(=Nc1c(F)cc(F)cc1Br)Nc1c(F)cc(F)cc1Br)C12CC3CC(CC(C3)C1)C2 [H-BDF, N—(N,N′-bis(2-bromo-4,6-difluorophenyl)carbamimidoyl)adamantane-1-carboxamide]",MBC,[1],1.95 µg/mL
same,MIC,[1],0.48 µg/mL
same,MBC,[2],1.95 µg/mL
same,MIC,[2],0.97 µg/mL
same,Selectivity Index (SI),[2],16
same,MBC,[3],7.81 µg/mL
same,MIC,[3],3.9 µg/mL
same,MBC,[4],0.97 µg/mL
same,MIC,[4],0.24 µg/mL
same,Selectivity Index (SI),[4],62
same,MBC,[5],7.81 µg/mL
same,MIC,[5],1.95 µg/mL
same,MBC,[6],3.9 µg/mL
same,MIC,[6],1.95 µg/mL
same,MBC,[7],7.81 µg/mL
same,MIC,[7],3.9 µg/mL
same,MBC,[8],3.9 µg/mL
same,MIC,[8],1.95 µg/mL
same,MBC,[9],3.9 µg/mL
same,MIC,[9],1.95 µg/mL
same,MBC,B. contaminans (HNBC001),0.97 µg/mL
same,MIC,B. contaminans (HNBC001),< 0.48 µg/mL
same,MBC,[10],7.81 µg/mL
same,MIC,[10],0.96 µg/mL
same,MBC,[11],1.95 µg/mL
same,MIC,[11],1.95 µg/mL
same,MBC,[12],15.6 µg/mL
same,MIC,[12],3.9 µg/mL
same,MBC,[13],7.81 µg/mL
same,MIC,[13],1.95 µg/mL
same,MBC,[14],3.9 µg/mL
same,MIC,[14],1.95 µg/mL
same,MBC,[15],7.81 µg/mL
same,MIC,[15],3.9 µg/mL
same,MBC,[16],7.81 µg/mL
same,MIC,[16],1.95 µg/mL
same,MBC,[17],3.9 µg/mL
same,MIC,[17],0.48 µg/mL
same,MBC,[18],3.9 µg/mL
same,MIC,[18],1.95 µg/mL
same,MBC,[19],15.6 µg/mL
same,MIC,[19],3.9 µg/mL
same,MBC,[20],7.81 µg/mL
same,MIC,[20],1.95 µg/mL
same,MBC,[21],30.2 µg/mL
same,MIC,[21],1.95 µg/mL
same,MBC,[22],15.6 µg/mL
same,MIC,[22],3.9 µg/mL
same,MBC,B. cenacepacia (FQC2524),3.9 µg/mL
same,MIC,B. cenacepacia (FQC2524),0.97 µg/mL
